Data taken from patent US7692012B2, “Vanadium compounds as inhibitors of phosphatases” (Imperial College Innovations Limited, priority 2003, dated 2010).

Columns and labels:
[1] = biological target: T1, MTM (Homo sapiens, UniProt Q13496); test: MTM IC50 (inositol phosphatase inhibition); type: biochemical; settings: Compound(+V)
T1 sequence (Q13496 1-603): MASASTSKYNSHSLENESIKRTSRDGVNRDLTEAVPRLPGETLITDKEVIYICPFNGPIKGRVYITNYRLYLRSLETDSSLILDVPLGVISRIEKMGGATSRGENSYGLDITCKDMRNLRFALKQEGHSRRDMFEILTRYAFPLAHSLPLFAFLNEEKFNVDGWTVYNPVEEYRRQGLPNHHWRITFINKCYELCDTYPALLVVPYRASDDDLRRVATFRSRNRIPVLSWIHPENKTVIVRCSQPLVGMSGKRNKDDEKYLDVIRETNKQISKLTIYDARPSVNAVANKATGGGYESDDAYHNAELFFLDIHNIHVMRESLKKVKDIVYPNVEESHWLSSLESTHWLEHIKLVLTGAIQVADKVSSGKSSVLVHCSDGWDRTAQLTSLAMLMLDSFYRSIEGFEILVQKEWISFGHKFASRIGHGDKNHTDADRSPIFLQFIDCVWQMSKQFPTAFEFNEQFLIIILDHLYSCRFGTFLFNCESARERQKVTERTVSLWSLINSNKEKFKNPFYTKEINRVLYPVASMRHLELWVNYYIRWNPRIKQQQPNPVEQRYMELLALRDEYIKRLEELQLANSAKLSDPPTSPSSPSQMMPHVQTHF

[2] = tested on: phosphorylation of tyrosine residues in NIH3T3 cells; test: Phosphotyrosine assay with NIH3T3 cells; type: cell-based; settings: 15 min
Method: NIH3T3 cells were grown and starved as described earlier. After 72 h starvation cells were incubated for 15 min with 10% NCS, 50, 10 and […] insulin (Sigma), 10, 1, 0.1 and 0.01 μM bpV(pic) and bpV(phen), respectively. Cell lysates were prepared as described above and all samples were analysed on Western Blots using an anti phospho-tyrosine antibody (Upstate).
(§1) All cell lysate samples were loaded on 10% SDS-PAGE and transferred to PVDF membranes for PKB analysis and nitrocellulose for phospho tyrosine detection. For PKB Western Blots membranes were blocked for 1 h with 5% milk powder in TBST followed by an incubation with anti Mass PKB antibody (1:1000) or anti phospho-PKB (Ser473) antibody (1:1000) in TBST for 2 h. Finally, membranes were exposed to a horseradish peroxidase-conjugated secondary antiserum (BIORAD) (1:1000) in 5% milk powder solution for 1 h. The Western Blots were developed with ECL™ solution (Amersham). In order to detect phosphorylated tyrosine residues nitrocellulose membranes were blocked for 1 h with 2.5% milk powder, first incubated with a specific anti phosphotyrosine antibody (4G10) (1:3000) for 1 h, and finally with horseradish peroxidase-conjugated secondary anti mouse antiserum. All PKB and Phospho-Tyrosine experiments were accomplished in three independent experiments and all membranes were re-probed using a specific tubulin antibody (1:1000). Density analysis of bands took place using the public domain NIH Image V1.62 program (developed at the U.S. National Institutes of Health and available on the Internet at http://rsb.info.nih.gov/nih-image/).

[3] = tested on: PKB phosphorylation (Ser473) in NIH3T3 cells; test: PKB assay in the presence of PI3K inhibitor Ly294002 and mTOR inhibitor rapamycin; type: cell-based
Method: In order to study the influence of PI3K and mTOR on the bpV-dependent insulin mimetic feature we treated NIH3T3 cells with 10 μM LY294002 (Promega) and 50 nM rapamycin (Calbiochem) for 20 min and 30 min, respectively, followed by an incubation with 10 μM or 1 μM bpv(pic) for 15 min. Cell lysates were analysed on PKB Western Blots.
as §1

In the case of “potassium bisperoxo (piconlinate) oxovanadate [bpV(pic)]”, the IC50 [1] is reported as 0.239 ± 0.0042 µM, the tyrosine phosphorylation ([2]; 0.01 μM) is reported as “not distinguishable to the negative control” and the tyrosine phosphorylation ([2]; 10 μM) is reported as “highest degree of tyrosine phosphorylation”. For the same substance, the “phosphorylation of Ser473 of PKB” value ([3]; 1 μM bpV(pic) after pre-incubation with 50 nM rapamycin) was “provoked phosphorylated Ser473”, the “phosphorylation of Ser473 of PKB” value ([3]; 1 μM bpV(pic) alone) was “no signal was visible” and the “phosphorylation of Ser473 of PKB” value ([3]; 10 μM bpV(pic) after pre-incubation with 10 μM Ly294002) was “reduced phosphorylation rate”. For the same substance, the “phosphorylation of Ser473 of PKB” value ([3]; 10 μM bpV(pic) alone) was “high degree of phosphorylation”.
